Measurements published in US20240217978A1 (CHONG KUN DANG PHARMACEUTICAL CORP., priority 2021, published 2024).

Biological target: human adenosine A2a receptor (Homo sapiens (Human), UniProt P29274)
Assay: A2a receptor binding affinity, [3H]-NECA radioligand binding test
Settings: [3H]-NECA 37 nM; membrane from HEK-293 cells transfected with human adenosine A2a receptor
Outline: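 Membranes from HEK-293 cells expressing human A2a receptor were incubated with [3H]-NECA (final 37 nM) and compound for 1 h at room temperature in 50 mM Tris, 10 mM MgCl2, 1 mM EDTA, pH 7.4. Bound ligand was filtered on PEI-coated plates and counted by scintillation to derive IC50 (μM).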

human adenosine A2a receptor, sequence (P29274 whole entry): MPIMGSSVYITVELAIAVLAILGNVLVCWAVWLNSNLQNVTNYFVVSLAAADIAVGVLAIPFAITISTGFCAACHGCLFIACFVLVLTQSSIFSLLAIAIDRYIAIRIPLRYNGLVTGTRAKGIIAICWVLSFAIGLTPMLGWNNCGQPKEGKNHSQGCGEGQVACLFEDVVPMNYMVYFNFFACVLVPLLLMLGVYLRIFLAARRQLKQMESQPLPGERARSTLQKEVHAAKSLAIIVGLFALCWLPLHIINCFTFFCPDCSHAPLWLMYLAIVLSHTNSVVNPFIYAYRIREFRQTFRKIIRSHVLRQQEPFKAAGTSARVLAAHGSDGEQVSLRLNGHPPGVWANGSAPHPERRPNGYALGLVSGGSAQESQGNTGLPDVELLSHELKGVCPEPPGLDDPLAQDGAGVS

SMILES | IC50 [nM]
C[C@H](Nc1nc(N)n2nc(-c3ccco3)nc2n1)C(=O)N1CCN(CC(F)(F)C(F)(F)F)CC1 [Example 319, (S)-2-((7-amino-2-(furan-2-yl)-[1,2,4]triazolo[1,5-a][1,3,5]triazin-5-yl)amino)-1-(4-(2,2,3,3,3-pentafluoropropyl)piperazin-1-yl)propan-1-one] | 15
Nc1nc(N2CCC[C@H]2C(=O)N2CCN(CC3CCC(C(F)(F)F)CC3)CC2)nc2nc(-c3ccco3)nn12 (stereo partly drawn) [Example 330, (S)-(1-(7-amino-2-(furan-2-yl)-[1,2,4]triazolo[1,5-a][1,3,5]triazin-5-yl)pyrrolidin-2-yl)(4-((4-(trifluoromethyl)cyclohexyl)methyl)piperazin-1-yl)methanone] | 11
Nc1nc(N[C@@H](CN2CCCCC2)C(=O)N2CCN(c3ccc(F)cc3F)CC2)nc2nc(-c3ccco3)nn12 [Example 272, (S)-2-((7-amino-2-(furan-2-yl)-[1,2,4]triazolo[1,5-a][1,3,5]triazin-5-yl)amino)-1-(4-(2,4-difluorophenyl)piperazin-1-yl)-3-(piperidin-1-yl)propan-1-one] | 15
C[C@H](Nc1nc(N)n2nc(-c3ccco3)nc2n1)C(=O)N1CCC(C2CCN(CC(C)(C)F)CC2)CC1 [Example 332, (S)-2-((7-amino-2-(furan-2-yl)-[1,2,4]triazolo[1,5-a][1,3,5]triazin-5-yl)amino)-1-(1′-(2-fluoro-2-methylpropyl)-[4,4′-bipiperidin]-1-yl)propan-1-one] | 5
COCCN1CCN(C2CN(C(=O)[C@@H]3CCCN3c3nc(N)n4nc(-c5ccco5)nc4n3)C2)CC1 [Example 405, (S)-(1-(7-amino-2-(furan-2-yl)-[1,2,4]triazolo[1,5-a][1,3,5]triazin-5-yl)pyrrolidin-2-yl)(3-(4-(2-methoxyethyl)piperazin-1-yl)azetidin-1-yl)methanone] | 71
C[C@H](Nc1nc(N)n2nc(-c3ccco3)nc2n1)C(=O)N1CCN(CC(C)(C)F)CC1 [Example 119, (S)-2-((7-amino-2-(furan-2-yl)-[1,2,4]triazolo[1,5-a][1,3,5]triazin-5-yl)amino)-1-(4-(2-fluoro-2-methylpropyl)piperazin-1-yl)propan-1-one] | 9
Nc1nc(N2CCC[C@H]2C(=O)N2CCN(CC(F)(F)F)CC2)nc2nc(-c3ccco3)nn12 [Example 48, (S)-(1-(7-amino-2-(furan-2-yl)-[1,2,4]triazolo[1,5-a][1,3,5]triazin-5-yl)pyrrolidin-2-yl)(4-(2,2,2-trifluoroethyl)piperazin-1-yl)methanone] | 13
Nc1nc(N[C@H](C(=O)N2CCN(c3ncccn3)CC2)C2CCOCC2)nc2nc(-c3ccco3)nn12 [Example 241, (S)-2-((7-amino-2-(furan-2-yl)-[1,2,4]triazolo[1,5-a][1,3,5]triazin-5-yl)amino)-1-(4-(pyrimidin-2-yl)piperazin-1-yl)-2-(tetrahydro-2H-pyran-4-yl)ethan-1-one] | 1
C[C@H](Nc1nc(N)n2nc(-c3ccco3)nc2n1)C(=O)N1CCN(CC(C)(F)F)CC1 [Example 317, (S)-2-((7-amino-2-(furan-2-yl)-[1,2,4]triazolo[1,5-a][1,3,5]triazin-5-yl)amino)-1-(4-(2,2-difluoropropyl)piperazin-1-yl)propan-1-one] | 13
CCCCN1CCN(C(=O)[C@@H]2CCCN2c2nc(N)n3nc(-c4ccc(C)o4)nc3n2)CC1 [Example 189, (S)-(1-(7-amino-2-(5-methylfuran-2-yl)-[1,2,4]triazolo[1,5-a][1,3,5]triazin-5-yl)pyrrolidin-2-yl)(4-butylpiperazin-1-yl)methanone] | 9
CC(C)(O)CC(=O)N1CCN(C(=O)[C@@H]2CCCN2c2nc(N)c3nc(-c4ccco4)oc3n2)CC1 [Example 263, 1-(4-((7-amino-2-(furan-2-yl)oxazolo[5,4-d]pyrimidin-5-yl)-L-prolyl)piperazin-1-yl)-3-hydroxy-3-methylbutan-1-one] | 25

Second part, the compound after the results:

IC50 [nM] | SMILES
3 | Nc1nc(N[C@H](C(=O)N2CCN(CC(F)(F)F)CC2)C2CCCC2)nc2nc(-c3ccco3)nn12 [Example 217, (S)-2-((7-amino-2-(furan-2-yl)-[1,2,4]triazolo[1,5-a][1,3,5]triazin-5-yl)amino)-2-cyclopentyl-1-(4-(2,2,2-trifluoroethyl)piperazin-1-yl)ethan-1-one]
5 | Nc1nc(N[C@H](C(=O)N2CCN(CC(F)(F)C(F)F)CC2)C2CC2)nc2nc(-c3ccco3)nn12 [Example 359, (S)-2-((7-amino-2-(furan-2-yl)-[1,2,4]triazolo [1,5-a][1,3,5]triazin-5-yl)amino)-2-cyclopropyl-1-(4-(2,2,3,3-tetrafluoropropyl)piperazin-1-yl)ethan-1-one]
10 | Cn1cnc(C(=O)N2CCN(C(=O)[C@@H]3CCCN3c3nc(N)n4nc(-c5ccco5)nc4n3)CC2)c1 [Example 102]
6 | CN1CCN(c2cccc(C(=O)N3CCN(C(=O)[C@@H]4CCCN4c4nc(N)n5nc(-c6ccco6)nc5n4)CC3)c2)CC1 [Example 82, (4-((7-amino-2-(furan-2-yl)-[1,2,4]triazolo[1,5-a][1,3,5]triazin-5-yl)-L-prolyl)piperazin-1-yl)(3-(4-methylpiperazin-1-yl)phenyl)methanone]
0.357 | CC(C)[C@H](Nc1nc(N)n2nc(-c3ccco3)nc2n1)C(=O)N1CCN(c2ccc(F)cc2F)CC1 [Example 10, (S)-2-((7-amino-2-(furan-2-yl)-[1,2,4]triazolo[1,5-a][1,3,5]triazin-5-yl)amino)-1-(4-(2,4-difluorophenyl)piperazin-1-yl)-3-methylbutan-1-one]
3 | Cc1ccc(-c2nc3nc(N4CC[C@H]4C(=O)N4CCN(C5CCCCC5)CC4)nc(N)n3n2)o1 [Example 219, (S)-(1-(7-amino-2-(5-methylfuran-2-yl)-[1,2,4]triazolo[1,5-a][1,3,5]triazin-5-yl)azetidin-2-yl)(4-cyclohexylpiperazin-1-yl)methanone]
7 | CCCC[C@H](Nc1nc(N)n2nc(-c3ccco3)nc2n1)C(=O)N1CCN(CC(F)(F)F)CC1 [Example 213, (S)-2-((7-amino-2-(furan-2-yl)-[1,2,4]triazolo[1,5-a][1,3,5]triazin-5-yl)amino)-1-(4-(2,2,2-trifluoroethyl)piperazin-1-yl)hexan-1-one]
16 | Nc1nc(N2CCC[C@H]2C(=O)N2CCN(C3CCCCC3)CC23CC3)nc2nc(-c3ccco3)nn12 [Example 344, (S)-(1-(7-amino-2-(furan-2-yl)-[1,2,4]triazolo[1,5-a][1,3,5]triazin-5-yl)pyrrolidin-2-yl)(7-cyclohexyl-4,7-diazaspiro[2.5]octan-4-yl)methanone]
26 | CC(C)(O)CC(=O)N1CCN(C(=O)[C@@H]2CCN2c2nc(N)c3nc(-c4ccco4)sc3n2)CC1 [Example 275, (S)-1-(4-(1-(7-amino-2-(furan-2-yl)thiazolo[5,4-d]pyrimidin-5-yl)azetidin-2-carbonyl)piperazin-1-yl)-3-hydroxy-3-methylbutan-1-one]
13 | C[C@H](Nc1nc(N)n2nc(-c3ccco3)nc2n1)C(=O)N1CCC(C2CCN(CC(F)F)CC2)CC1 [Example 334, (S)-2-((7-amino-2-(furan-2-yl)-[1,2,4]triazolo[1,5-a][1,3,5]triazin-5-yl)amino)-1-(1′-(2,2-difluoroethyl)-[4,4′-bipiperidin]-1-yl)propan-1-one]
13 | CCCCN1CCN(C(=O)[C@H](CC)Nc2nc(N)n3nc(-c4ccco4)nc3n2)CC1 [Example 172, (S)-2-((7-amino-2-(furan-2-yl)-[1,2,4]triazolo[1,5-a][1,3,5]triazin-5-yl)amino)-1-(4-butylpiperazin-1-yl)butan-1-one]
14 | Nc1nc(N[C@@H](CO)C(=O)N2CCN(Cc3ccccc3)CC2)nc2nc(-c3ccco3)nn12 [Example 233, (S)-2-((7-amino-2-(furan-2-yl)-[1,2,4]triazolo[1,5-a][1,3,5]triazin-5-yl)amino)-1-(4-benzylpiperazin-1-yl)-3-hydroxypropan-1-one]
9 | Cc1ccc(-c2nc3nc(N4CCC[C@H]4C(=O)N4CCN(CCCC(F)(F)F)CC4)nc(N)n3n2)o1 [Example 300, (S)-(1-(7-amino-2-(5-methylfuran-2-yl)-[1,2,4]triazolo[1,5-a][1,3,5]triazin-5-yl)pyrrolidin-2-yl)(4-(4,4,4-trifluorobutyl)piperazin-1-yl)methanone]
11 | Cc1ccc(-c2nc3nc(N4CC[C@H]4C(=O)N4CCN(C(=O)c5ccccc5)CC4)nc(N)n3n2)o1 [Example 207, (S)-(1-(7-amino-2-(5-methylfuran-2-yl)-[1,2,4]triazolo[1,5-a][1,3,5]triazin-5-yl)azetidin-2-yl)(4-benzoylpiperazin-1-yl)methanone]
0.2 | CC(C)C[C@H](Nc1nc(N)n2nc(-c3ccco3)nc2n1)C(=O)N1CCN(c2ccc(F)cc2F)CC1 [Example 167, (S)-2-((7-amino-2-(furan-2-yl)-[1,2,4]triazolo[1,5-a][1,3,5]triazin-5-yl)amino)-1-(4-(2,4-difluorophenyl)piperazin-1-yl)-4-methylpentan-1-one]
8 | C[C@H](Nc1cc2nc(-c3ccco3)nn2c(N)n1)C(=O)N1CCN(CC(C)(C)F)CC1 [Example 375, (S)-2-((5-amino-2-(furan-2-yl)-[1,2,4]triazolo[1,5-c]pyrimidin-7-yl)amino)-1-(4-(2-fluoro-2-methylpropyl)piperazin-1-yl)propan-1-one]
8 | Nc1nc(N2CC[C@H]2C(=O)N2CCC(C3CCN(CC(F)(F)C(F)F)CC3)CC2)nc2nc(-c3ccco3)nn12 [Example 325, (S)-(1-(7-amino-2-(furan-2-yl)-[1,2,4]triazolo[1,5-a][1,3,5]triazin-5-yl)azetidin-2-yl)(1′-(2,2,3,3-tetrafluoropropyl)-[4,4′-bipiperidin]-1-yl)methanone]
